One assay has as its system 5-HT1A receptor. The conditions noted are these: cited from earlier work.
Assay [1] addresses T1, serotonin 5-HT1A receptor (Rattus norvegicus, UniProt P19327).
T1 construct: following the procedure of Hall et al., J. Neurochem; 44, 1685 (1985); from tissue
T1 sequence (P19327 1-422): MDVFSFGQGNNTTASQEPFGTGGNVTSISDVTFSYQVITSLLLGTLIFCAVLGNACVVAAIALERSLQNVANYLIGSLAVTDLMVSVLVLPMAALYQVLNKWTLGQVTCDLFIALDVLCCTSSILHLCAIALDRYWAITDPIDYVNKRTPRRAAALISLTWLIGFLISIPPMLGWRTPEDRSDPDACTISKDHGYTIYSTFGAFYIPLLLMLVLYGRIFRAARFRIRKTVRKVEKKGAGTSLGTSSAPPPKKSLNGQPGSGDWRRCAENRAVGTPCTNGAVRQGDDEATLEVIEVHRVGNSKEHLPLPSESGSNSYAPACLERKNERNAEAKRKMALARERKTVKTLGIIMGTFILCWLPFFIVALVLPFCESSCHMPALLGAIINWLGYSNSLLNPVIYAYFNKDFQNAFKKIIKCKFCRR
Briefly: Serotonin 5-HT1A receptor affinity, displacement of [3H]8-OHDPAT. The format is binding. The conditions noted are these: for inhibition at 0.1 µM: read-out: Receptor Affinities 5-HT1A (% @ ( ) μM). The source says: Affinity for the serotonin 5-HT1A receptor was established by testing the claimed compound's ability to displace [^3 H]8-OHDPAT (dipropylaminotetralin) from the 5-HT1A serotonin receptor following the procedure of Hall et al., J. Neurochem. 44, 1685 (1985). […] The anxiolytic activity of buspirone is believed to be, at least partially, due to its 5-HT1A receptor affinity (Vander Maclen et al., Eur. J. Pharmacol. 1986, 129 (1-2) 133-[…]).

The subject of another assay is mouse locomotor activity. Briefly: Reduction of mouse locomotor activity (Martin and Bendensky). The format is in vivo, mice (male, CF-1). The following applies: horizontal activity counts 10 to 20 minutes after dosing; for ED50: ip, read-out: Hypolocomotion (ED50 mg/kg, ip).
The target of the next assay is T2, dopamine D2 receptor (Rattus norvegicus, UniProt P61169).
T2 construct: homogenized limbic brain tissue is incubated with ^3 H-spiroperidol; from tissue; host or cells: homogenized limbic brain tissue
T2 sequence (P61169 whole entry): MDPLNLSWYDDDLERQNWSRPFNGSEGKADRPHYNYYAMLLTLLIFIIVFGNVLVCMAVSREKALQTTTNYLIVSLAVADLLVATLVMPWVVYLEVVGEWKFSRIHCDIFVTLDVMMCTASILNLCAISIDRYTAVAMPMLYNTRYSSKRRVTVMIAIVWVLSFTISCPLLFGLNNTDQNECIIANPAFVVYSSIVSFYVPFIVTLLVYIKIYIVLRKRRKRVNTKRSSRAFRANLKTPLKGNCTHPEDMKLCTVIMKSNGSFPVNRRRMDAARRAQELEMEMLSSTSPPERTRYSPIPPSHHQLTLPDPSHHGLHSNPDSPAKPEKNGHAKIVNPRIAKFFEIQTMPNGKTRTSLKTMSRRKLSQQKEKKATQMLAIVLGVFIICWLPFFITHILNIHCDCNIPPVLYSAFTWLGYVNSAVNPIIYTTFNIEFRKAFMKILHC
Briefly: Dopamine D2 receptor affinity, 3H-spiroperidol binding in homogenized limbic brain tissue.

A further assay has as its system synthesis of dopamine. Briefly: Inhibition of dopa accumulation in GBL/NSD-1015-treated rats (dopamine autoreceptor agonism; Walters and Roth). The format is in vivo, rats (male, Sprague-Dawley). The conditions noted are these: sc, rat. From the text: The effect of the compounds of the invention on the synthesis of dopamine was established by the method of Walters and Roth, Naunyn-Schmiedeberg's Arch. […] Following perchloric acid extraction of the tissue, the extracts were placed over alumina columns to collect and concentrate dopa and other catechols. This eluate was then subjected to HPLC analysis using electrochemical detection to quantify the levels of dopa present. Dopamine autoreceptor agonists, under the conditions used above, inhibit dopa accumulation.

Setting [2] is: limbic (L) brain tissue, read-out: Dopa Accumulation (% inhib. @ 10 mg/kg, sc), limbic (L).
Setting [3] is: striatal (S) brain tissue, read-out: Dopa Accumulation (% inhib. @ 10 mg/kg, sc), striatal (S).

pIC50: −log10 of the molar value. Read-outs that look alike come from different tables or passages of the source.

On to `O=C1CC2(CCCC2)CC(=O)N1CCCCNCC1COc2ccccc2O1` (single isomer, unassigned; (-)) [(-)-MDL 72832], for which, in the assay with 5-HT1A receptor ((-)-isomer versus dextrorotary isomer, Fozard et al.), the “binding at the 5-HT1A receptor site relative to the dextrorotary isomer” value is on record as 32 times.

Turning to `Nc1cccc(OCCCNCC2COc3ccccc3O2)c1` (centres unmarked) [Example 1, N-[3-(3-Aminophenoxy)propyl]-2,3-dihydro-1,4-benzodioxin-2-methanamine], the results for the pIC50 (in assay [1] (read-out: Receptor Affinities 5-HT1A IC50); on dopamine D2 receptor (read-out: Receptor Affinities D2 IC50)) were 8.40 and 6.28, respectively. In addition, the ED50 with mouse locomotor activity was 0.38 mg/kg. The inhibition at 10 mg/kg is 33% in the assay with synthesis of dopamine (setting [2]) and 46% in the assay on synthesis of dopamine (setting [3]).

As for `COc1cccc2c1OCC(CNCCCOc1cccc(N)c1)O2` (centres unmarked) [Example 2, N-[3-(3-Aminophenoxy)propyl]-2,3-dihydro-5-methoxy-1,4-benzodioxin-2-methanamine], the inhibition at 10 mg/kg in the assay on synthesis of dopamine (setting [2]) is -22%.

For the compound `Nc1cccc(OCCCNCC2COc3ccc(O)cc3O2)c1` (centres unmarked) [Example 3, N-[3-(3-Aminophenoxy)propyl]-2,3-dihydro-7-hydroxy-1,4-benzodioxin-2-methanamine], the ED50 in the assay on mouse locomotor activity (Mus musculus) was found to be 0.16 mg/kg. Moreover, the “Hypolocomotion (ED50 mg/kg, ip)” value in the assay on mouse locomotor activity was 0.15 mg/kg. In addition, the inhibition at 10 mg/kg with synthesis of dopamine (setting [2]) stood at 64%; with synthesis of dopamine (setting [3]), 66%.

On to `Nc1cccc(OCCCNC[C@H]2COc3ccc(O)cc3O2)c1` [Example 4, (S)-N-[3-(3-Aminophenoxy)propyl]-2,3-dihydro-7-hydroxy-1,4-benzodioxin-2-methanamine], for which, in the assay on mouse locomotor activity (Mus musculus), the ED50 amounted to 0.08 mg/kg. The inhibition at 10 mg/kg with synthesis of dopamine (setting [2]) was found to be 70%; in the assay with synthesis of dopamine (setting [3]), 71%.

As to `Nc1cccc(OCCCNCC2COc3cc(O)ccc3O2)c1` (centres unmarked) [Example 5, N-[3-(3-Aminophenoxy)propyl]-2,3-dihydro-6-hydroxy-1,4-benzodioxin-2-methanamine], the inhibition at 10 mg/kg was 31% in the assay on synthesis of dopamine (setting [2]) and 30% in the assay with synthesis of dopamine (setting [3]).

For the compound `Nc1cccc(OCCCNCC2COc3c(O)cccc3O2)c1` (centres unmarked) [Example 6, N-[3-(3-Aminophenoxy)propyl]-2,3-dihydro-5-hydroxy-1,4-benzodioxin-2-methanamine], the values for the inhibition at 10 mg/kg in the assay on synthesis of dopamine (setting [2]) and in the assay with synthesis of dopamine (setting [3]) were 23% and 30%, respectively.

With `Nc1cccc(OCCCNC[C@@H]2COc3ccc(O)cc3O2)c1` [Example 7, (R)-N-[3-(3-Aminophenoxy)propyl]-2,3-dihydro-7-hydroxy-1,4-benzodioxin-2-methanamine], in the assay on mouse locomotor activity (Mus musculus), the ED50 was 1.34 mg/kg. Further, the inhibition at 10 mg/kg with synthesis of dopamine (setting [2]) turned out to be 27%; in the assay with synthesis of dopamine (setting [3]), 19%.

On to `COc1ccc2c(c1)OC(CNCCCOc1cccc(N)c1)CO2` (centres unmarked) [Example 8, N-[3-(3-Aminophenoxy)propyl]-2,3-dihydro-7-methoxy-1,4-benzodioxin-2-methanamine], for which, in assay [1], the inhibition at 0.1 µM was 95%. Also, the inhibition at 1 µM on dopamine D2 receptor (% at 1.0 μM, read-out: Receptor Affinities D2 (% @ ( ) μM)) turned out to be 48%. In the assay on synthesis of dopamine (setting [2]), the inhibition at 10 mg/kg turned out to be 42.9%.

For `Nc1cccc(OCCCNC[C@H]2COc3ccccc3O2)c1` [Example 9, (S)-N-[3-(3-Aminophenoxy)propyl]-2,3-dihydro-1,4-benzodioxin-2-methanamine], the inhibition at 0.1 µM in assay [1] came to 100%. In addition, the ED50 in the assay on mouse locomotor activity came out at 0.19 mg/kg.

Turning to `Nc1cccc(OCCCNCC2COc3cc4c(cc3O2)OCO4)c1` (centres unmarked) [Example 10, N-[3-(3-Aminophenoxy)propyl]-2,3-dihydro-6,7-methylenedioxy-1,4-benzodioxin-2-methanamine], in assay [1], the inhibition at 0.1 µM is 54%. In addition, the ED50 in the assay with mouse locomotor activity is 1.8 mg/kg. Also, the inhibition at 10 mg/kg with synthesis of dopamine (setting [2]) turned out to be 70.9%.

Regarding `COc1cccc2c1OC(CNCCCOc1cccc(N)c1)CO2` (centres unmarked) [Example 11, N-[3-(3-Aminophenoxy)propyl]-2,3-dihydro-8-methoxy-1,4-benzodioxin-2-methanamine], in the assay with synthesis of dopamine (setting [2]), the inhibition at 10 mg/kg came to 13%.

Take `Nc1cccc(OCCCNCC2COc3cccc(O)c3O2)c1` (centres unmarked) [Example 12, N-[3-(3-Aminophenoxy)propyl]-2,3-dihydro-8-hydroxy-1,4-benzodioxin-2-methanamine]: the inhibition at 10 mg/kg in the assay with synthesis of dopamine (setting [2]) came out at 17.4%.

On to `Nc1cccc(OCCCNCC2COc3ccc(Cl)cc3O2)c1` (centres unmarked) [Example 13, N-[3-(3-Aminophenoxy)propyl]-2,3-dihydro-7-chloro-1,4-benzodioxin-2-methanamine], for which the inhibition at 10 mg/kg in the assay on synthesis of dopamine (setting [2]) was 9.1%.

With `COc1cc2c(cc1OC)OC(CNCCCOc1cccc(N)c1)CO2` (centres unmarked) [Example 14, N-[3-(3-Aminophenoxy)propyl]-2,3-dihydro-6,7-dimethoxy-1,4-benzodioxin-2-methanamine], the inhibition at 10 mg/kg with synthesis of dopamine (setting [2]) worked out at 53.7%.

Regarding `COc1ccc2c(c1OC)OCC(CNCCCOc1cccc(N)c1)O2` (centres unmarked) [Example 15, N-[3-(3-Aminophenoxy)propyl]-2,3-dihydro-5,6-dimethoxy-1,4-benzodioxin-2-methanamine], the inhibition at 10 mg/kg in the assay on synthesis of dopamine (setting [2]) amounted to 7.6%.

As for `Nc1cccc(OCCCNCC2COc3ccc(F)cc3O2)c1` (centres unmarked) [Example 16, N-[3-(3-Aminophenoxy)propyl]-2,3-dihydro-7-fluoro-1,4-benzodioxin-2-methanamine], in assay [1], the inhibition at 0.1 µM worked out at 87%. For the same compound, the ED50 with mouse locomotor activity was 1.4 mg/kg. Further, in the assay with synthesis of dopamine (setting [2]), the inhibition at 10 mg/kg turned out to be 59.9%.

As to `COc1ccc2c(c1)O[C@@H](CNCCCOc1cccc(N)c1)CO2` [Example 17, (S)-N-[3-(3-Aminophenoxy)propyl]-2,3-dihydro-7-methoxy-1,4-benzodioxin-2-methanamine], the inhibition at 10 mg/kg in the assay with synthesis of dopamine (setting [2]) worked out at 28%.

With `Cc1c(O)ccc2c1OC(CNCCCOc1cccc(N)c1)CO2` (centres unmarked) [Example 19, N-[3-(3-Aminophenoxy)propyl]-2,3-dihydro-7-hydroxy-8-methyl-1,4-benzodioxin-2-methanamine], in the assay on synthesis of dopamine (setting [2]), the inhibition at 10 mg/kg was 21%.

Consider `O=C1CC2(CCCC2)CC(=O)N1CCCCNCC1COc2ccccc2O1` (centres unmarked) [MDL 72832, 8-[4-(1,4-benzodioxan-2-ylmethylamino)butyl]-8-azaspiro[4.5]decane-7,9-dione], for which the “5-HT1A receptor ligand character” value with 5-HT1A receptor (in words, Fozard et al.) is “selective and stereospecific”.

For `O=C1CC2(CCCC2)CC(=O)N1CCCCN1CCN(c2ncccn2)CC1` [buspirone], the “affinity for the 5-HT1A serotonin receptor subtype” value with 5-HT1A receptor (in words, standard for anxiolytic activity) was “potent affinity”.

The pIC50 is the IC50 on a negative log10 scale, so that one unit is a factor of ten.
